Experimental data reported in BindingDB's records for patent US20240018151 (Tme Therapeutics, 2024).

Target: 1-phosphatidylinositol 3-phosphate 5-kinase (Homo sapiens, UniProt Q9Y2I7)
Test: ADP-GLO Kinase Assay
Protocol: Briefly, 4 compound solution and 4 ATP solution are prepared with assay buffer (50 mM MOPS, 1 mM DTT, pH7.2). 4 Substrate solution and 4 kinase/Metal solution are prepared with MOPS based buffer containing individual kinase specific additives. Then, […], 5 μL of 4 Substrate solution, 5 μL of 4 ATP solution, and 5 μL of 4 kinase/Metal solution are mixed and incubated in a well of polystyrene 384 well black microplate for 1 hour at room temperature. Next, 20 μL of ADP-Glo Reagent (Promega) is added to the well,and incubated for over 40 minutes. 40 μL of Kinase Detection Reagent (Promega) is added to the well, and incubated for over 40 minutes. The kinase reaction is evaluated by the endpoint luminescence of the well. For measurement of PIKFYVE activity, the substrate is PI3P at 10,000 nM concentration, using AG-182 as a positive control. The metal used is magnesium at 5 mM concentration.

Sequence of 1-phosphatidylinositol 3-phosphate 5-kinase (Q9Y2I7 whole entry): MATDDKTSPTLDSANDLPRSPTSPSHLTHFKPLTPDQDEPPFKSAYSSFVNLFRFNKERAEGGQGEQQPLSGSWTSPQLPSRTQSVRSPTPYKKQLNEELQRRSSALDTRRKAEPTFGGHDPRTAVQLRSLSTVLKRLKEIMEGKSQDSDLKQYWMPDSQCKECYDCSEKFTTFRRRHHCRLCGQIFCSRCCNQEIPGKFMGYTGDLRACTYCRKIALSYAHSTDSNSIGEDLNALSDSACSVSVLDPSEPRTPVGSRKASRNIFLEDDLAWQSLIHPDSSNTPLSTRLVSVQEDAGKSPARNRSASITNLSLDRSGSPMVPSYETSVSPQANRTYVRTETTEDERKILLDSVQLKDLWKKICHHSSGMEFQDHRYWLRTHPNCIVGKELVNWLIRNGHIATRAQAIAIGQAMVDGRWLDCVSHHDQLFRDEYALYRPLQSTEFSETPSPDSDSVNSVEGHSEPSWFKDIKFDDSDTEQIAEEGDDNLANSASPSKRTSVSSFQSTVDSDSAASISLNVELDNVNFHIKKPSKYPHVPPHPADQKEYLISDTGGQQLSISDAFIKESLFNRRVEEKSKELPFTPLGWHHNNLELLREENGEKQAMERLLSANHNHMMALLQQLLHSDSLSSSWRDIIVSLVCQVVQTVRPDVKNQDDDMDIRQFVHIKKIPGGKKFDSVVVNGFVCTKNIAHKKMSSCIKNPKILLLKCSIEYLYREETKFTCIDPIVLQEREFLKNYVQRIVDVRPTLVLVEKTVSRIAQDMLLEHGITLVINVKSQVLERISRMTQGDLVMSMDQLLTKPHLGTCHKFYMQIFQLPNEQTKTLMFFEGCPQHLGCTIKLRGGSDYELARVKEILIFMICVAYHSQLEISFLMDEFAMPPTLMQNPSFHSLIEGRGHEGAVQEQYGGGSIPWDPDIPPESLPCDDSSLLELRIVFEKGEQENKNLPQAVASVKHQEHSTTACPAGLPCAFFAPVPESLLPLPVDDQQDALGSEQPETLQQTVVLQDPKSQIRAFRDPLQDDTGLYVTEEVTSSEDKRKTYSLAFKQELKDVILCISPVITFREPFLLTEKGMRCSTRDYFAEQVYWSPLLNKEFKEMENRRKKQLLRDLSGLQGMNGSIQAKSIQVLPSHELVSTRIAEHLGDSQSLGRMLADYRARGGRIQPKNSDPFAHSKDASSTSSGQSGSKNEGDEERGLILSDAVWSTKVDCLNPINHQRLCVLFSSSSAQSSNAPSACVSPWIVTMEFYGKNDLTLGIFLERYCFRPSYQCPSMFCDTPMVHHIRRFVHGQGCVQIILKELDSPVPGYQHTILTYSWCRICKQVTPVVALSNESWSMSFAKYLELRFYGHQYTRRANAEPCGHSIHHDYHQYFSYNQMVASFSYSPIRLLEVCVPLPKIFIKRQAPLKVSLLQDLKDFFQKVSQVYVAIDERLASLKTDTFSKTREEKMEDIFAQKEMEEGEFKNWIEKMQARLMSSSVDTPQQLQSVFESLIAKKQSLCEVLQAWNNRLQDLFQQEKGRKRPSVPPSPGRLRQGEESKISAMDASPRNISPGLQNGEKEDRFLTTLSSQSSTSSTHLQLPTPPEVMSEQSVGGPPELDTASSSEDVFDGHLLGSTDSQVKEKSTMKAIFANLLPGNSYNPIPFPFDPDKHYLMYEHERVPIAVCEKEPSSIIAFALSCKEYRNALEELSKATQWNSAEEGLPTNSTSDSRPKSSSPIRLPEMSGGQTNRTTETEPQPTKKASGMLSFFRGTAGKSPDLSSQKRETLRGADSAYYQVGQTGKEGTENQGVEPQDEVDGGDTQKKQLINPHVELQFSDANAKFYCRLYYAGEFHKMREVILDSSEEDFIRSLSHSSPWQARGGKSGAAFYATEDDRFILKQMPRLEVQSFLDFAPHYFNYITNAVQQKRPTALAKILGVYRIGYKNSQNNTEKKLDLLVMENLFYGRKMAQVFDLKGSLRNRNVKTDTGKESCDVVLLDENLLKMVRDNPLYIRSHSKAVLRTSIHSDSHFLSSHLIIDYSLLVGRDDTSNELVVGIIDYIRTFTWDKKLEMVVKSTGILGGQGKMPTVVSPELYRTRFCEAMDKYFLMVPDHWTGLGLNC

IC50: < 50 nM
Structure (SMILES): Brc1cccc(-c2ccn(-c3cc(N4CCOCC4)n4nc(-c5ccncc5)cc4n3)n2)c1 [US20240018151, Example 3]
